# Measurements reported in US20220202753A1, “METHOD OF DELIVERY OF INTRAVENOUS BACLOFEN” (Allaysis, LLC, priority 2020, published 2022).
# Tests used:
# [1] = Clinical bioequivalence study of baclofen injection compared to baclofen tablets in healthy adult volunteers; type: in vivo, human
# From the text: This study was designed as a two-part, single-dose bioequivalence study of baclofen injection (test formulation) compared to commercial baclofen tablets (reference product) in healthy adult volunteers under fasted conditions. Part 1 of this study was a single-dose, open-label, four-treatment, randomized, crossover bioequivalence study of baclofen tablets and baclofen injection in healthy adults under fasted conditions. If needed, Part 2 of this study was to be a single-dose, two-way crossover between the most promising infusion of baclofen injection from Part 1 and baclofen tablets.
# Subjects were randomized to receive each of 4 treatments in a randomized, crossover fashion: • 15 mg of baclofen injection administered intravenously over 180 minutes • 16 mg of baclofen injection administered intravenously over 180 minutes • 16 mg of baclofen injection administered intravenously over 240 minutes • 20 mg of baclofen tablet administered orally
# Each treatment administration was separated by a washout period of at least 3 days. Each dose was administered following a 10-hour overnight fast.
# During each study period, 6 mL blood samples were obtained prior to study drug administration and at selected times through 48 hours after drug administration. In the study periods in which subjects received an IV infusion. PK sampling was timed relative to the start of the infusion. Plasma pharmacokinetic samples were analyzed for baclofen using a validated achiral bioanalytical method. Appropriate pharmacokinetic parameters were calculated for each formulation using non compartmental methods.
# Treatments A, B, and C: • Treatment A dose:=15 mg of baclofen injection administered intravenously over 180 minutes • Treatment B dose=16 mg of baclofen injection administered intravenously over 180 minutes • Treatment C dose=16 mg of baclofen injection administered intravenously over 240 minutes
# Control Product: Treatment D: • Baclofen Tablet, 20 mg, dose:=1×20 mg tablet
# Concentration-time data for baclofen were analyzed using noncompartmental methods in Phoenix™ WinNonlin® Version 6.3, Certara L.P.). During the pharmacokinetic analysis, concentrations below the limit of quantitation […] up to the time of the first quantifiable concentration were treated ac zero. Embedded (values between 2 quantifiable concentrations) and/or terminal BLQ concentrations were treated as “missing”. Actual sample times, relative to the time of dose, were used in the pharmacokinetic analysis.
# During each baclofen injection treatment period, samples were drawn at 0 hour (predose) and 0.5, 1.0, 1.5, 2.0, 2.5, 3.0, 3.5, 4.0, 4.5, 5.0, 6.0, 7, 8, 10, 12, 18, 24, 30, 36, and 48 hours after starting the infusion.
# During the baclofen tablet administration treatment period, samples were drawn at 0 hour (predose) and at 0.25, 0.5, 0.75, 1.0, 1.5, 2.0 3.0, 3.5, 4.0, 5.0, 6.0, 7, 8, 10, 12, 18, 24, 30, 36, and 48 hours after oral administration.
# [2] = Study 1: two-way crossover study of oral and intravenous baclofen in healthy adult volunteers; type: in vivo, human
# From the text: Study 1: Two-Way Crossover Study of Oral and Intravenous Baclofen in Healthy Adult Volunteers
# The objective of the study was to characterize baclofen pharmacokinetics following oral and IV administration following low doses in healthy adult volunteers and determine the safety profile of an IV baclofen formulation.
# This study was a randomized, open label, balanced, two-treatment, single dose, crossover design in normal, healthy adult human subjects under fasting conditions.
# Initially, three adult volunteers received a single 3 mg IV and a 5 mg oral baclofen dose on separate study days. On the first day of drug administration in the study, one subject was given baclofen intravenously, and two subjects were given baclofen orally. On the second day of drug administration in the study, those that received baclofen orally received the TV dose and the individual who received the IV dose received the oral dose. Clinical tolerance was assessed, and plasma concentrations of baclofen were measured from the first three subjects before additional subjects were entered into the study. Nine additional adult volunteers received single 5 mg IV and 10 mg oral baclofen doses on separate days. Randomization occurred in a 1:1 ratio, such that all subjects received IV and oral baclofen on separate study days, but not necessarily in the same order. A total of twelve (12) subjects completed the clinical phase of the study. Plasma samples of 12 subjects were analyzed. However, the data from nine (9) subjects who received 5 mg IV and 10 mg oral tablet were considered for pharmacokinetic analysis and the calculation of within-subject variability. The three subjects who received 3 mg IV/5 mg oral baclofen were excluded from the pharmacokinetic analysis because more than half of the plasma concentrations were below the limit of quantitation (BLQ). Therefore, meaningful estimation of AUC was not possible for these subjects.
# [3] = Combined results of the two pilot pharmacokinetic studies (first in human and dose escalation); type: in vivo; details: for bioavailability: human, plasma
# Description: Two pilot studies were conducted to characterize baclofen pharmacokinetics and safety following intravenous administration and to access absolute bioavailability of IV and oral baclofen. These studies are described in: A Pilot Study Assessing Pharmacokinetics and Tolerability of Oral and Intravenous Baclofen in Healthy Adult Volunteers, Suresh K. Agarwal, Robert L. Kriel, James C. Cloyd, Lisa D. Coles, Lisa A. Scherkenbach, Michael H. Tobin, and Linda E. Krach, Journal of Child Neurology 2014, 30(1) 37-41; and A Randomized Dose Escalation Study of intravenous Baclofen in Healthy Volunteers: Clinical Tolerance and Pharmacokinetics, Schmitz N S, Krach L E, Coles L D, Mishra U, Agarwal S K, Cloyd J C, Kriel R L. PM&R, 2017, Volume 9(8), 743-750, both hereby incorporated by reference as though fully set forth herein. […] In order to meet bioequivalency criteria for both exposure (AUC) and peak concentration (Cmax), it was concluded that infusion times needed to be longer. To that end, modeling and simulation studies were performed to predict IV baclofen dosing regimens that would be bioequivalent to a 20 mg oral dose with respect to both AUC and Cm. These simulations formed the basis for a pivotal bioequivalence study where three different dosing regimens of baclofen IV (15 mg infused over 3 hours: 16 mg infused over 3 hours; and 16 mg infused over 4 hours, respectively) were compared to a single dose of a 20 mg oral tablet. Each of these IV regimens was bioequivalent to the 20 mg oral dosing but the 16 mg/3 hours dosing best met the bioequivalence criteria.
# An important goal for adjusting the dose and duration of a baclofen infusion was to achieve bioequivalent systemic exposure (Cmax and AUC) between a single-dose baclofen IV infusion and a 20 mg oral baclofen tablet.
# [4] = cited from earlier work
# [5] = 5 mg IV infused over 15 minutes vs 10 mg oral
smiles,measurement,setting,value
"NCC(CC(=O)O)c1ccc(Cl)cc1 (stereo not shown) [baclofen, 4-amino-3-[4-chlorophenyl] butanoic acid]",geometric mean ratio vs. Treatment D (20 mg oral tablet) for AUClast,"[1]; 16 mg IV over 180 minutes, 90% CI 89.7-94.6%",92.1%
same,geometric mean ratio vs. Treatment D (20 mg oral tablet) for AUCinf,"[1]; 16 mg IV over 180 minutes, 90% CI 89.8-94.6%",92.2%
same,geometric mean ratio vs. Treatment D (20 mg oral tablet) for Cmax,"[1]; 16 mg IV over 180 minutes, 90% CI 93.7-101.0%",97.3%
same,median Tmax,"[1]; 20 mg oral tablet, fasted",1.0 h
same,conversion factor to the oral regimen giving bioequivalent substitution,[1]; IV administered over 180 minutes,0.8
same,bioequivalence to the 20 mg baclofen oral tablet,"[1]; all three IV infusions: 15 mg over 180 min, 16 mg over 180 min, 16 mg over 240 min",bioequivalent
same,half-life,"[1]; human, plasma, other: intravenous infusions and oral tablet, IV infusions and oral tablet, read-out: mean T1/2",5.5 to 5.8 h
same,difference in median Tmax (oral tablet earlier than IV infusions),"[1]; human, plasma, other: oral tablet versus intravenous infusions, 20 mg oral tablet vs IV infusions",2 to 3 h
same,Tmax,"[1]; human, plasma, across IV infusions (15 mg/180 min, 16 mg/180 min, 16 mg/240 min), read-out: median Tmax",3 to 4 h
same,clearance,"[1]; human, plasma, across IV infusions, read-out: mean total systemic clearance (CLT)",147 to 148 mL/min
same,Vd,"[1]; human, plasma, across IV infusions, read-out: mean volume of distribution (Vz)",69.8 to 71.4 L
same,AUC of IV dose compared with oral dose,[2]; [5],similar
same,Cmax of IV dose compared with oral dose,[2]; [5],higher
same,Tmax of IV dose compared with oral dose,[2]; [5],earlier
same,tolerability,[2]; 3 and 5 mg IV,well tolerated
same,bioavailability,"[2]; human, plasma, 10 mg oral vs 5 mg IV, n=9, fasting, read-out: estimated mean absolute bioavailability of oral baclofen",74%
same,bioavailability,"[3]; oral, 45 subjects, read-out: inter-patient range of % F",42 to 132%
same,bioavailability,"[3]; oral, two pilot studies, 10- to 60-minute IV infusions, healthy volunteers, read-out: estimated mean bioavailability of oral baclofen",74 to 85%
same,bioavailability,"[3]; po, 11.5 mg, read-out: mean oral bioavailability",80%
same,bioavailability,"[3]; po, 15 mg, read-out: mean oral bioavailability",85%
same,bioavailability,"[3]; po, 45 subjects, read-out: mean bioavailability of oral baclofen following a single dose",~86%
same,ratio of an IV to an oral dose,[3]; two prospective studies in healthy volunteers,80-85%
same,solubility in chloroform,[4]; chloroform,insoluble
same,solubility in methanol,[4]; methanol,very slightly soluble
same,solubility in water,[4]; water,2090 µg/mL
